Experimental findings from patent US10857139B2, “Substituted diazaspiroalkanes as androgen receptor modulators” (The Regents of the University of California, priority 2006, dated 2020) are described below.

The target of series [1] is T1, androgen receptor (AR) (Homo sapiens, UniProt P10275, T878A).
T1 construct: endogenous in cells; host or cells: LNCaP cells
T1 sequence (P10275 1-920 T878A): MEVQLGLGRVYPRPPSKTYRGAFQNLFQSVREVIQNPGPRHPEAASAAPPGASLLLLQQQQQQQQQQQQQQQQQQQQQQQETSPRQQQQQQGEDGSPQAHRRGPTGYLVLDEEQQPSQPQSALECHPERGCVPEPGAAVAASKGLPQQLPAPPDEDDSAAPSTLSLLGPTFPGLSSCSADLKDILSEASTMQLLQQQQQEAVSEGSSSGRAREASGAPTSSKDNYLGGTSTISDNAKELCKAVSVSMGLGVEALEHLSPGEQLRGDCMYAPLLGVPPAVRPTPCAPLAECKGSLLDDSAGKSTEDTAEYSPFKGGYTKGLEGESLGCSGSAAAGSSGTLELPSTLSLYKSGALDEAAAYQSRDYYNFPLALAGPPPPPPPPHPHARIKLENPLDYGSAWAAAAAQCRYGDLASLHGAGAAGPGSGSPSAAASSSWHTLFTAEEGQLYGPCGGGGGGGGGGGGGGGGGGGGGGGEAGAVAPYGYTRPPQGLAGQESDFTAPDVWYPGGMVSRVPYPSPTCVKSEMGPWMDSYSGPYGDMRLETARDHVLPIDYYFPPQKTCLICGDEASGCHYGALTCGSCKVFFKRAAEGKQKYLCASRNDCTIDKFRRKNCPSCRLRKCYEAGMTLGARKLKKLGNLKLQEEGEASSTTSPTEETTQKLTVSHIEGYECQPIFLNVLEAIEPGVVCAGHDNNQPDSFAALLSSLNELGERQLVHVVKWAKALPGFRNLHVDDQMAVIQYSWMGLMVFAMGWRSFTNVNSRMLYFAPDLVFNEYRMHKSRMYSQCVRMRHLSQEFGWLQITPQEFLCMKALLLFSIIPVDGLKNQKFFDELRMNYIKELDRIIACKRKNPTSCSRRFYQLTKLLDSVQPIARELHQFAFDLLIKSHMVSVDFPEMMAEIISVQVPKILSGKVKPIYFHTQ
Description: Secreted PSA induced by R1881 in hormone sensitive (HS) LNCaP cells (PSA ELISA). In kind it is cell-based. The settings on record: FIG. 1, R1881, 5 days incubation. For orientation: An ELISA detects its analyte on a solid surface through an enzyme-linked reagent.
Description: (§2) The biological activity of the compound of formula II was measured by secreted levels of prostate specific antigen (PSA). […] LNCaP cells (or LNCaP/AR cells) were maintained in Iscove's medium containing 10% FBS. Five days prior to drug treatment, the cells were grown in Iscove's medium containing 10% CS-FBS to deprive of androgens.

Series [2] has as its system androgen receptor (AR). Description: Secreted PSA induced by R1881 in hormone refractory (HR) LNCaP/AR cells (PSA ELISA). Type of series: cell-based. The settings on record: FIG. 3, R1881, 5 days incubation.
Description: as §2
The next series relates to LNCaP cells. The experiment in a line: MTS assay, growth inhibition of HS cancer cells. Type of series: cell-based. The conditions noted are these: FIG. 2. On the procedure: The biological activity of the compound of formula II was measured by secreted levels of prostate specific antigen (PSA). It is well established that PSA levels are indicators of AR activities in prostate cancer. […] After 5 days of incubation, secreted PSA levels were assayed using PSA ELISA kits (American Qualex, San Clemente, Calif.) (See FIG. 1 and FIG. 3). The MTS assay was also used to examine the growth inhibition of the compounds of formula II (See FIG. 2).
For orientation: Tetrazolium dyes change colour on reduction, which living cells bring about.

Another series concerns LNCaP-AR tumors. Description: LNCaP-AR xenograft tumor growth in SCID mice. In kind it is in vivo. The settings on record: for effect on tumors in an in vivo assay: administered as described (iv or oral formulation); for effect on tumor: daily dose of 1 mg/kg; for effect on tumor / tumor cytotoxicity / tumor growth: SCID mice; for tumor cytotoxicity: daily dose of 25-50 mg/kg; for tumor growth: daily oral dose of 10 mg/kg. On the procedure:
All animal experiments were performed in compliance with the guidelines of the Animal Research Committee of the University of California at Los Angeles. Animals were bought from Taconic and maintained in a laminar flow tower in a defined flora colony. LNCaP-AR and LNCaP-vector cells were maintained in RPMI medium supplemented with 10% FBS. 10^6 cells in 100 μl of 1:1 Matrigel to RPMI medium were injected subcutaneously into the flanks of intact or castrated male SCID mice. Tumor size was measured weekly in three dimensions (length×width×depth) using calipers. Mice were randomized to treatment groups when tumor size reached approximately 100 mm^3. Drugs were given orally everyday at the dose of 10 mg/kg.
Other doses were also tried.
Prostate cancer cell lines were used for xenografts. For example, a LNCaP xenograft, LAPC4 xenograft, LAPC9 xenograft, and xenografts of the hormone refractory counterparts of these cell lines were made. Other cell lines included V-cap, CWR22 and LAPC4 cell lines. Two cell lines that over express the androgen receptor were generated, LNCaP AR and LAPC4 AR. […] Under androgen ablation, the LNCaP AR and LAPC4 AR lines continued to grow, thus behaving like hormone refractory cells.
CB17 SCID mice were used in the study.
Injections were made subcutaneously on the right flank of the mouse. […] In addition, because of the usage of Matrigel, injection of no more than 200 μl was found appropriate. Injection of 100-200 μl was found appropriate. Injecting too large a volume created leakage upon needle withdrawal.

A short description of series [3]: Stability of intravenous formulation (DMSO/PBS solution) at room temperature. In kind it is physicochemical. The conditions noted are these: 10-25% DMSO, balance PBS. On the procedure: A compound presently disclosed, for example, compound A51 or A52, can be in a formulation suitable for intravenous dosing. In an embodiment, the compound is dissolved in from about 10% to about 25% dimethylsulfoxide (DMSO). 1× phosphate buffered saline (PBS) is then mixed into the solution as the balance, and the solution is sonicated with a water bath sonicator until it is homogeneous.
At a compound concentration of 1.5 mg/mL, 5 minutes of sonication may be sufficient to dissolve the compound. At a compound concentration of 2 mg/ml, more than 5 minutes of sonication may be required to dissolve the compound and a polyethylene glcyol can be added to keep the compound in suspension. For example, 5 to 40% PEG-400 (a polyethylene glycol), such as, 5-10% PEG-400, can be added.

Another series is described as follows: Solubility in ethanol. In kind it is physicochemical. An excerpt:
(§1) When administered to mice, hardening of the skin and skin irritation around the injection site was observed, and this was attributed to the use of DMSO.

Series [4] can be described thus: Stability of the compounds in vivo with ethanol as solvent. The conditions noted are these: mice.
Text: as §1

Series [5] is described as follows: Suspension stability of oral formulation (DMSO/CMC/Tween 80/water). The conditions noted are these: oral formulation: DMSO, CMC, Tween 80, water; about 1.5 mg/mL. In kind it is physicochemical. On the procedure:
In an embodiment, the compound is dissolved in 100% DMSO.
Additional chemicals can be added, such as a carboxymethylcellulose, a polysorbate, or water. […] The solution is mechanically homogenized for at least 30 seconds.
That is, more than 10% DMSO was not required.

On to `Cc1ccc(N2C(=S)N(c3cnc(C#N)c(C(F)(F)F)c3)C(=O)C23CCC3)cc1` [A51, 5-(8-oxo-6-thioxo-5-(4-methylphenyl)-5,7-diazaspiro[3.4]oct-7yl)-3-trifluoromethylpyridine-2-carbonitrile], for which, at androgen receptor (AR) [1], the “antagonist effect on HS cancer cells (secreted PSA)” value is listed as “antagonist effect”. For the same compound, the “antagonist effect on HR cancer cells (secreted PSA)” value with androgen receptor (AR) [2] was “antagonist effect”. The “antagonist effect on HS cancer cells (MTS growth inhibition)” value with LNCaP cells was “antagonist effect”. Further, in the series on LNCaP-AR tumors, the “effect on tumors in an in vivo assay” value was “beneficial effect on tumors”, the effect on tumor result was “mild effect”, the tumor cytotoxicity entry is reported as “some tumor cytotoxicity” and the tumor growth entry is listed as “completely retard tumor growth”. For the same compound, the stability of solution result in series [3] is “stable at room temperature for at least a week”. Also, the solubility in ethanol entry in “Solubility in ethanol” is “soluble in ethanol”. Also, in series [4], the “effect of ethanol on stability of the compounds in vivo” value is “reduce the stability”. The “time the compound stays in suspension” value in series [5] is on record as “only a couple of hours”.

For the compound `CNC(=O)c1ccc(N2C(=S)N(c3cnc(C#N)c(C(F)(F)F)c3)C(=O)C23CCC3)cc1F` [A52, 4-[7-(6-cyano-5-trifluoromethylpyridin-3-yl)-8-oxo-6-thioxo-5,7-diazaspiro[3,4]oct-5-yl]-2-fluoro-N-methylbenzamide], the “antagonist effect on HS cancer cells (MTS growth inhibition)” value with LNCaP cells is “antagonist effect”. In the series on LNCaP-AR tumors (FIG. 6, after 17 days of treatment), the Luciferase activity entry is reported as “disappearance of Luciferase activity”. For the same compound, in the series on LNCaP-AR tumors, the “effect on tumors in an in vivo assay” value is given as “beneficial effect on tumors”, the effect on tumor entry was “mild effect”, the tumor cytotoxicity entry is “some tumor cytotoxicity” and the tumor growth result is reported as “completely retard tumor growth”. In addition, in series [3], the stability of solution result is listed as “stable at room temperature for at least a week”. Also, the solubility in ethanol result in the series “Solubility in ethanol” is “soluble in ethanol”. Moreover, the “effect of ethanol on stability of the compounds in vivo” value in series [4] is reported as “reduce the stability”. For the same compound, the “time the compound stays in suspension” value in series [5] is given as “only a couple of hours”.
